Data from patent publication US9975885B2, “Broad-spectrum non-covalent coronavirus protease inhibitors” (priority 2016, dated 2018).
Marks after values point to notes of the source that are not given here.

How the values were obtained:
FIPV-3CL^pro = FIPV-3CL^pro (Feline coronavirus (strain FIPV WSU-79/1146) (FCoV), UniProt Q98VG9); assay: biochemical
NL63-3CL^pro = NL63-3CL^pro (Human coronavirus NL63 (HCoV-NL63), UniProt P0C6X5); assay: biochemical
HKU1-3CL^pro = HKU1-3CL^pro (Human coronavirus HKU1 (isolate N1) (HCoV-HKU1), UniProt P0C6X2); assay: biochemical
Chain of HKU1-3CL^pro (P0C6X2 3335-3637 limits assumed): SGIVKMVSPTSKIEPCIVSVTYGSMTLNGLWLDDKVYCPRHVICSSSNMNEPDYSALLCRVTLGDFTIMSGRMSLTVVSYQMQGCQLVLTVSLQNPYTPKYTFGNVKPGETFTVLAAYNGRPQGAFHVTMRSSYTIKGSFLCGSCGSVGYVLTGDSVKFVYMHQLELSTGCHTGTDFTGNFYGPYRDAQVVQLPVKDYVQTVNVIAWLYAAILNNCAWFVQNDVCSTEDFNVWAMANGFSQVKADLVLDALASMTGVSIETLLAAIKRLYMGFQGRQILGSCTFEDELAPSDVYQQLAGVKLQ

OC43-3CL^pro = OC43-3CL^pro (Human coronavirus OC43 (HCoV-OC43), UniProt P0C6X6); assay type: biochemical
Chain of OC43-3CL^pro (P0C6X6 3247-3549 limits assumed): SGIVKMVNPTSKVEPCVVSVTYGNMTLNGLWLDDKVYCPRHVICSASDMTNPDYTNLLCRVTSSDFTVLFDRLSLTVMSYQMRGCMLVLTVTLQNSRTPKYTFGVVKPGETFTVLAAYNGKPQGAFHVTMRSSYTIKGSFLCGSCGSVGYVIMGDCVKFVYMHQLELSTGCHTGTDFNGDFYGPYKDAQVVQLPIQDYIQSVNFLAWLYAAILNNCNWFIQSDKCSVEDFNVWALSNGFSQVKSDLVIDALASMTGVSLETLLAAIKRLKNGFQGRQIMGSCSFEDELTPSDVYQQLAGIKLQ

SARS-3CL^pro = SARS-3CL^pro (Severe acute respiratory syndrome coronavirus (SARS-CoV), UniProt P0C6X7); assay type: biochemical
HKU5-3CL^pro = HKU5-3CL^pro (Bat coronavirus HKU5 (BtCoV) (BtCoV/HKU5/2004), UniProt P0C6W4); assay type: biochemical
Chain of HKU5-3CL^pro (P0C6W4 3339-3644 limits assumed): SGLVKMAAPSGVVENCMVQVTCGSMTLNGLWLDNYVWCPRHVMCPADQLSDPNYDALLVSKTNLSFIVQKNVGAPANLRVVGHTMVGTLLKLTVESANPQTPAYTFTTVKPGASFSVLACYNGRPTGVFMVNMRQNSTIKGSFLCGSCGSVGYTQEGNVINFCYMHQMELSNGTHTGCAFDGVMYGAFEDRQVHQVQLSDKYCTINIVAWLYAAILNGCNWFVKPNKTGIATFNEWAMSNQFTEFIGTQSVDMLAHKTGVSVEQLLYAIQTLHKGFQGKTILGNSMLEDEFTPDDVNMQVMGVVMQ

PEDV-3CL^pro = PEDV-3CL^pro (Porcine epidemic diarrhea virus (strain CV777) (PEDV), UniProt P0C6Y4); assay: biochemical
Chain of PEDV-3CL^pro (P0C6Y4 2998-3299 limits assumed): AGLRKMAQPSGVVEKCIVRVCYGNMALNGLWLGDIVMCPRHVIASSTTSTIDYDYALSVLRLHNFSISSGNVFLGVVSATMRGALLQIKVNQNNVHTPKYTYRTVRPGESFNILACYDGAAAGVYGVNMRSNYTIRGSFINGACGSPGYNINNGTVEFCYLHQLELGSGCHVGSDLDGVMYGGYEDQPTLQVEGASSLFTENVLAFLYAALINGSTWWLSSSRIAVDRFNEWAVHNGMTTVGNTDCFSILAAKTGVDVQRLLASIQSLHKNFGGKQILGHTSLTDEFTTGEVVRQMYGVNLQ

HKU4-3CL^pro = HKU4-3CL^pro (Bat coronavirus HKU4 (BtCoV) (BtCoV/HKU4/2004), UniProt P0C6W3); assay type: biochemical
Chain of HKU4-3CL^pro (P0C6W3 3292-3597 limits assumed): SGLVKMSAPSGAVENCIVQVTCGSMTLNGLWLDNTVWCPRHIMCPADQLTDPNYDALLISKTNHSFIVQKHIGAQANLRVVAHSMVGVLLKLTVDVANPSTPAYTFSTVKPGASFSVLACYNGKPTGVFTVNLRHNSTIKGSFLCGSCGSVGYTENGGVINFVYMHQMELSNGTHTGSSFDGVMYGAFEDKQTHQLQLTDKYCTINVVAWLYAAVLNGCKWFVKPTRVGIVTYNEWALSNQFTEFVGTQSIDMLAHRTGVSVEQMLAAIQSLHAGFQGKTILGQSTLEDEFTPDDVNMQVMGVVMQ

[1] = tested on: Ten CoV 3CL^pro's (FIPV-, PEDV-, NL63-, HKU1-, OC43-, SARS-, HKU4-, HKU5-, HKU9-, IBV-3CL^pro); assay type: biochemical, coronaviruses (α-, β-, γ-CoV)

Chain of NL63-3CL^pro (P0C6X5 2940-3242 limits assumed): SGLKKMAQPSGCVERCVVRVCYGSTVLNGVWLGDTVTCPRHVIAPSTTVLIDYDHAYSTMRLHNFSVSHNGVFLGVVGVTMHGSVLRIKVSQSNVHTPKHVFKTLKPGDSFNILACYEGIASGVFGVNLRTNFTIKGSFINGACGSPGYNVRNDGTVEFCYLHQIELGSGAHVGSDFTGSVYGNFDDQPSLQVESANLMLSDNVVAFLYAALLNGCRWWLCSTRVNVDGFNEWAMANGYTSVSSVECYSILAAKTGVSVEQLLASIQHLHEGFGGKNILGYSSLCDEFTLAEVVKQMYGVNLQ
Chain of FIPV-3CL^pro (Q98VG9 2904-3205 limits assumed): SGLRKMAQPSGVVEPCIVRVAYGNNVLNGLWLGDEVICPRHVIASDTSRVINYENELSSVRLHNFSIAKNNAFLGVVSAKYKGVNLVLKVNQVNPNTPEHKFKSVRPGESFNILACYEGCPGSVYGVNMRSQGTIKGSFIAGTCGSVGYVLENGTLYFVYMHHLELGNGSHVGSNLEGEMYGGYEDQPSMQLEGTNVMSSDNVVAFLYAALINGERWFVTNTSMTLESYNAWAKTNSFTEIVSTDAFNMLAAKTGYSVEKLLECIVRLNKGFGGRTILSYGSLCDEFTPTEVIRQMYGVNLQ

Compound | IC50 (FIPV-3CL^pro) | IC50 (NL63-3CL^pro) | IC50 (HKU1-3CL^pro) | IC50 (OC43-3CL^pro) | IC50 (SARS-3CL^pro) | IC50 (HKU5-3CL^pro) | IC50 (PEDV-3CL^pro) | IC50 (HKU4-3CL^pro) | Gini Coefficient [1] | Score (performance metric score) [1] | number of 3CL^pro's inhibited [1] | inhibition of HKU1-3CL^pro (HKU1-3CL^pro) | inhibition at 100 µM (PEDV-3CL^pro; read-out: inhibition of PEDV-3CL^pro) | inhibition at 100 µM (HKU1-3CL^pro; read-out: inhibition of HKU1-3CL^pro) | inhibition of NL63-3CL^pro (NL63-3CL^pro) | inhibition of OC43-3CL^pro (OC43-3CL^pro) | inhibition of SARS-3CL^pro (SARS-3CL^pro) | IC50 HKU4 (HKU4-3CL^pro) | IC50 HKU5 (HKU5-3CL^pro)
O=C(Nc1ccc(N(C(=O)Cn2nnc3ccccc32)C(C(=O)NCc2cccnc2)c2ccsc2)cc1)C1CC1 (stereo not shown) [Compound 34, N-(4-(2-(1H-benzo[d][1,2,3]triazol-1-yl)-N-(2-oxo-2-((pyridin-3-ylmethyl)amino)-1-(thiophen-3-yl)ethyl)acetamido)phenyl)cyclopropanecarboxamide] | 27.5 ± 3.8 µM | 15.6 ± 1.3 µM | 7.4 ± 1.1 µM | 8.9 ± 0.5 µM | 9.9 ± 0.9 µM | 2100 ± 200 nM | – | – | – | – | – | – | – | – | – | – | – | – | –
CC(C)(C)NC(=O)C(c1cccnc1)N(C(=O)c1c[nH]cn1)c1ccc(C2CCCC2)cc1 (stereo not shown) [Compound 41, N-(2-(tert-butylamino)-2-oxo-1-(pyridin-3-yl)ethyl)-N-(4-cyclopentylphenyl)-1H-imidazole-4-carboxamide] | 18.7 ± 2 µM | – | 5 ± 0.6 µM | – | 5.3 ± 0.5 µM | 19100 ± 2000 nM | 10.5 ± 0.9 µM | 19800 ± 1500 nM | 0.26 | 6.2 | – | – | – | – | – | – | – | – | –
CC(C)(C)NC(=O)C(c1cccnc1)N(C(=O)c1c[nH]cn1)c1ccc(C2CC2)cc1 (stereo not shown) [Compound 39, N-(2-(tert-butylamino)-2-oxo-1-(pyridin-3-yl)ethyl)-N-(4-cyclopropylphenyl)-1H-imidazole-4-carboxamide] | – | – | 2 ± 1.1 µM | – | 12.7 ± 2.5 µM | 15700 ± 2000 nM | 17.6 ± 2.6 µM | 16600 ± 1700 nM | 0.19 | 7.6 | five out of ten | – | – | – | – | – | – | – | –
O=C(Nc1ccc(N(C(=O)Cn2nnc3ccccc32)C(C(=O)NCc2ccccc2)c2ccsc2)cc1)C1CC1 (stereo not shown) [Compound 37, N-(4-(2-(1H-benzo[d][1,2,3]triazol-1-yl)-N-(2-(benzylamino)-2-oxo-1-(thiophen-3-yl)ethyl)acetamido)phenyl)cyclopropanecarboxamide] | – | 3 ± 0.3 µM | – | 2.2 ± 0.2 µM | 2 ± 0.2 µM | 800 ± 100 nM | – | 600 ± 40 nM | – | 5.3* | – | – | – | – | – | – | – | – | –
O=C(Nc1ccc(N(C(=O)Cn2nnc3ccccc32)C(C(=O)NC2CC2)c2ccsc2)cc1)C1CC1 (stereo not shown) [Compound 32, N-(4-(2-(1H-benzo[d][1,2,3]triazol-1-yl)-N-(2-(cyclopropylamino)-2-oxo-1-(thiophen-3-yl)ethyl)acetamido)phenyl)cyclopropanecarboxamide] | – | 14.8 ± 1.2 µM | 9.8 ± 1.8 µM | 2.8 ± 0.2 µM | 8.2 ± 1.5 µM | 900 ± 100 nM | – | 800 ± 100 nM | – | 5.0* | six | – | – | – | – | – | – | – | –
CC(C)(C)NC(=O)C(c1ccsc1)N(C(=O)Cn1cnc2ccccc21)c1ccc(NC(=O)C2CC2)cc1 (stereo not shown) [Compound 27, N-(4-(2-(1H-benzo[d]imidazol-1-yl)-N-(2-(tert-butylamino)-2-oxo-1-(thiophen-3-yl)ethyl)acetamido)phenyl)cyclopropanecarboxamide] | – | – | – | 16.3 ± 2.1 µM | – | 9700 ± 1600 nM | – | 9600 ± 1000 nM | 0.37 | 11.0 | – | – | – | – | – | – | – | – | –
CC(C)(C)c1ccc(N(C(=O)c2c[nH]cn2)C(C(=O)NC2CC2)c2cccnc2)cc1 (stereo not shown) [Compound 46, N-(4-(tert-butyl)phenyl)-N-(2-(cyclopropylamino)-2-oxo-1-(pyridin-3-yl)ethyl)-1H-imidazole-4-carboxamide] | 43.9 ± 6.1 µM | 16.8 ± 2.9 µM | 7.8 ± 1.2 µM | 24.5 ± 4.3 µM | 11.8 ± 1.6 µM | 8900 ± 900 nM | 4.3 ± 0.4 µM | 11200 ± 1000 nM | – | 4.0 | – | – | – | – | – | – | – | – | –
CC(C)(C)NC(=O)C(c1cccnc1)N(C(=O)c1c[nH]cn1)c1ccc(C2CCCCC2)cc1 (stereo not shown) [Compound 42, N-(2-(tert-butylamino)-2-oxo-1-(pyridin-3-yl)ethyl)-N-(4-cyclohexylphenyl)-1H-imidazole-4-carboxamide] | 39.7 ± 5.7 µM | – | 11.6 ± 1.5 µM | 63.1 ± 12 µM | 6.3 ± 0.5 µM | 4300 ± 1000 nM | 26.2 ± 2.4 µM | 27000 ± 4100 nM | 0.18 | 6.6 | – | – | – | – | – | – | – | – | –
CC(C)C(=O)Nc1ccc(N(C(=O)Cn2cnc3ccccc32)C(C(=O)NCc2ccccc2)c2cccc(F)c2)cc1 (stereo not shown) [Compound 19, N-(4-(2-(1H-benzo[d]imidazol-1-yl)-N-(2-(benzylamino)-1-(3-fluorophenyl)-2-oxoethyl)acetamido)phenyl)isobutyramide] | – | – | 3.7 ± 0.6 µM | 3.9 ± 0.4 µM | – | 2900 ± 300 nM | – | 2500 ± 200 nM | 0.31 | 6.8 | – | – | – | – | – | – | – | – | –
CC(C)(C)OC(=O)CNC(=O)C(c1ccsc1)N(C(=O)Cn1nnc2ccccc21)c1ccc(NC(=O)C2CC2)cc1 (stereo not shown) [Compound 64, tert-butyl (2-(2-(1H-benzo[d][1,2,3]triazol-1-yl)-N-(4-(cyclopropanecarboxamido)phenyl)acetamido)-2-(thiophen-3-yl)acetyl)glycinate] | 11.7 ± 1.2 µM | 8.7 ± 0.8 µM | 6.5 ± 0.9 µM | 4.5 ± 0.3 µM | 6.3 ± 0.8 µM | 2000 ± 200 nM | 8.7 ± 1.4 µM | 2100 ± 200 nM | – | – | eight of the ten | – | – | – | – | – | – | – | –
CC(C)NC(=O)C(c1ccsc1)N(C(=O)Cn1nnc2ccccc21)c1ccc(NC(=O)C2CC2)cc1 (stereo not shown) [Compound 29, N-(4-(2-(1H-benzo[d][1,2,3]triazol-1-yl)-N-(2-(isopropylamino)-2-oxo-1-(thiophen-3-yl)ethyl)acetamido)phenyl)cyclopropanecarboxamide] | – | 8.1 ± 1.6 µM | – | 11.1 ± 1.2 µM | 8.3 ± 1.5 µM | 2400 ± 300 nM | – | 2000 ± 200 nM | – | 6.3* | – | – | – | – | – | – | – | – | –
O=C(Nc1ccc(N(C(=O)Cn2nnc3ccccc32)C(C(=O)NC2CCCC2)c2ccsc2)cc1)C1CC1 (stereo not shown) [Compound 33, N-(4-(2-(1H-benzo[d][1,2,3]triazol-1-yl)-N-(2-(cyclopentylamino)-2-oxo-1-(thiophen-3-yl)ethyl)acetamido)phenyl)cyclopropanecarboxamide] | – | 3.7 ± 0.6 µM | – | 7.3 ± 0.8 µM | 4.2 ± 0.6 µM | 600 ± 100 nM | – | 500 ± 50 nM | 0.32 | 5.7* | – | not tolerated | – | – | – | – | – | – | –
CC(C)C(=O)Nc1ccc(N(C(=O)Cn2nnc3ccccc32)C(C(=O)NCc2cccnc2)c2cccc(F)c2)cc1 (stereo not shown) [Compound 6, N-(4-(2-(1H-benzo[d][1,2,3]triazol-1-yl)-N-(1-(3-fluorophenyl)-2-oxo-2-((pyridin-3-ylmethyl)amino)ethyl)acetamido)phenyl)isobutyramide] | 13.8 ± 1.1 µM | – | 6.8 ± 1.9 µM | 10 ± 1.9 µM | 5.5 ± 0.7 µM | 2500 ± 200 nM | 8.3 ± 1.2 µM | 2000 ± 100 nM | – | – | – | – | > 50% | > 50% | – | – | – | – | –
O=C(Nc1ccc(N(C(=O)Cn2nnc3ccccc32)C(C(=O)NC2CCCCC2)c2ccsc2)cc1)C1CC1 (stereo not shown) [Compound 67, N-(4-(2-(1H-benzo[d][1,2,3]triazol-1-yl)-N-(2-(cyclohexylamino)-2-oxo-1-(thiophen-3-yl)ethyl)acetamido)phenyl)cyclopropanecarboxamide] | – | – | – | – | – | 600 ± 100 nM | – | 700 ± 100 nM | 0.39 | 8.3* | – | – | – | – | not tolerated | not tolerated | not tolerated | sub-micromolar | sub-micromolar
